The results in this text go back to ChEMBL document CHEMBL2380231, “X-ray crystal structure of ERK5 (MAPK7) in complex with a specific inhibitor” (J Med Chem, 2013).

Active and inactive are the calls of the source. The rule behind the calls is not given here.

What all share (format): cell-based
For test [1], the target named is T1, Mitogen-activated protein kinase 7 (Homo sapiens, UniProt Q13164). Briefly: Inhibition of ERK5 autophosphorylation in sorbitol-stimulated human HeLa cells at 0.04 to 5 uM incubated for 1 hr prior to sorbitol stimulation measured after 30 mins by Western blot analysis. For orientation: Immunoblotting shows a protein as a band on a membrane.
Target sequence in this assay (Q13164 2-816 limits assumed): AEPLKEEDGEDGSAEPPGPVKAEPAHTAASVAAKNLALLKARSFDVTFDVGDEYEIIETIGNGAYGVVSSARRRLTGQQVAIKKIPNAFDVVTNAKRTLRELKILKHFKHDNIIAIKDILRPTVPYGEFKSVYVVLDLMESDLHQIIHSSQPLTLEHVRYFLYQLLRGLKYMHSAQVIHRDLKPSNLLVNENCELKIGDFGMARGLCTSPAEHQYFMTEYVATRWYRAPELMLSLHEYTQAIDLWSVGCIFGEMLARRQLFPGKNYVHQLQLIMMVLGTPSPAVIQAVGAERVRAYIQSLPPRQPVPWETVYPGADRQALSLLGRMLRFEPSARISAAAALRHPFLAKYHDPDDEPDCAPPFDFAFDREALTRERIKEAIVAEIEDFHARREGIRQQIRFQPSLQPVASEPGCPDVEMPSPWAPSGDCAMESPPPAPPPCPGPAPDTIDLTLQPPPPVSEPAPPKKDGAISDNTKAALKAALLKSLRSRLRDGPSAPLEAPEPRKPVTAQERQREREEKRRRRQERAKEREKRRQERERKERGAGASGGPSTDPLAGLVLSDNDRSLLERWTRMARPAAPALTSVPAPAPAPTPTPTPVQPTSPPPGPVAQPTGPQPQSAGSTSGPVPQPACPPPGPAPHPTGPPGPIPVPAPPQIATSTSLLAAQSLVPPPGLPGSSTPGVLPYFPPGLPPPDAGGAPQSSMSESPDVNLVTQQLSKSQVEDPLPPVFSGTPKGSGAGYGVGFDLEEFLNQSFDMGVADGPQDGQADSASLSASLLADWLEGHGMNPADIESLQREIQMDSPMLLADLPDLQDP
In test [2] the target is T2, Mitogen-activated protein kinase; ERK1/ERK2 (Homo sapiens) (UniProt P27361+P28482). Description: Inhibition of ERK1/ERK2 phosphorylation in sorbitol-stimulated human HeLa cells at 0.04 to 5 uM incubated for 1 hr prior to sorbitol stimulation measured after 30 mins by Western blot analysis.
T2 sequence (P27361 whole entry, looked up): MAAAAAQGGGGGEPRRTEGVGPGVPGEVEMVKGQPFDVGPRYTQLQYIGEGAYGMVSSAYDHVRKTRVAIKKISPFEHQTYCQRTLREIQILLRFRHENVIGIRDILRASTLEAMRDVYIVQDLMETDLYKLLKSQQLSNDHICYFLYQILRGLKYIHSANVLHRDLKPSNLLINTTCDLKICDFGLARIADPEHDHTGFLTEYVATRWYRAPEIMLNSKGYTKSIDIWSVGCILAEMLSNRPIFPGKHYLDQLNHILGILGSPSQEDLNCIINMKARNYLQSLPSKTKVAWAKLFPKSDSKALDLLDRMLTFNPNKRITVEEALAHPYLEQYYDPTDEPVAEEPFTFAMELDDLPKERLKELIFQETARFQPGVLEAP
T2 sequence (P28482 whole entry, looked up): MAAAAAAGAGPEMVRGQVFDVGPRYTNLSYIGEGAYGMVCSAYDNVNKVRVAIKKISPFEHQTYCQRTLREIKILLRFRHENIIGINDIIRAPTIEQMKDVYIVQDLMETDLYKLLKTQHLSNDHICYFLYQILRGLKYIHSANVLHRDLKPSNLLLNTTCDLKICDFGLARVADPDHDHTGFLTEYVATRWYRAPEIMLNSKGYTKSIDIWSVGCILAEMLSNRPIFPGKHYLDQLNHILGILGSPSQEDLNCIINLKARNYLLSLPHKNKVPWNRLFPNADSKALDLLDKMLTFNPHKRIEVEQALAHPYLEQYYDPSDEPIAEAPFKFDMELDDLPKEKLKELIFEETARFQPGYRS
The target in test [3] is T2, Mitogen-activated protein kinase; ERK1/ERK2 (Homo sapiens). Description: Inhibition of total ERK1/ERK2 in sorbitol-stimulated human HeLa cells at 0.04 to 5 uM incubated for 1 hr prior to sorbitol stimulation measured after 30 mins by Western blot analysis.
Test [4] has as its target T1, Mitogen-activated protein kinase 7. Briefly: Inhibition of GST-tagged full length human ERK5 transfected in HEK293 cells assessed as inhibition of AP1 transcriptional activity after 24 hrs by dual luciferase reporter gene assay.
Target sequence in this assay (Q13164 whole entry): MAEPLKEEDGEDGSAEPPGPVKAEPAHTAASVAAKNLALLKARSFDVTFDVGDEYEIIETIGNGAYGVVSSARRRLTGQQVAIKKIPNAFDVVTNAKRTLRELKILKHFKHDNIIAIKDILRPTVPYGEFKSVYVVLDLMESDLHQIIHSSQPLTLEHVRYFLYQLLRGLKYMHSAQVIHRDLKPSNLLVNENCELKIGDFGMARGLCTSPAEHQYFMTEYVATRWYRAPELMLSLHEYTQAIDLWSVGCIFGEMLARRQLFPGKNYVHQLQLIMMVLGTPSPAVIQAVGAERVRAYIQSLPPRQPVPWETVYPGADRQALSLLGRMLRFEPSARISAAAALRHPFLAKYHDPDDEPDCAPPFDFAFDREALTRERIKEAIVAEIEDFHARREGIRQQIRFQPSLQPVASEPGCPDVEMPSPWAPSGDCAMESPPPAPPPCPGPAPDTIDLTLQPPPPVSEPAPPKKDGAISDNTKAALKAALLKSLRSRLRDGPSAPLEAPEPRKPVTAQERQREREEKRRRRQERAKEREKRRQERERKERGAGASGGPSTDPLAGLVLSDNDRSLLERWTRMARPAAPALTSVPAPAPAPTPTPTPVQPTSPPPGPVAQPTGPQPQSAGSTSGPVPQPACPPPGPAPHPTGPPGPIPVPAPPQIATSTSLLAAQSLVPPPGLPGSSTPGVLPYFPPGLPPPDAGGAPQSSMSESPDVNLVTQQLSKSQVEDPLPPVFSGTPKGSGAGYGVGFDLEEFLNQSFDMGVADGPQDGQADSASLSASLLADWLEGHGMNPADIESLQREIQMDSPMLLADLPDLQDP

Regarding `CCOc1cc(C(=O)N2CCC(N3CCN(C)CC3)CC2)ccc1Nc1ncc2c(n1)N(C1CCCC1)c1ccccc1C(=O)N2C`, in test [1], the inhibition entry was “Active”. Moreover, the inhibition result in test [2] and in test [3] was “inactive” throughout.

In general, EC50 refers to the concentration giving half of the maximal effect. Turning to `COc1cc(C(=O)N2CCC(N3CCN(C)CC3)CC2)ccc1Nc1ncc2c(n1)N1CCc3cccc(c31)C(=O)N2C`, in test [4], the concentration for a half-maximal effect (EC50) was greater than 30 µM.
